# Measured values: patent US12458688B2, “Epitopes” (Scancell Limited, priority 2018, dated 2025)
# Where two headings read alike, the source gives them in different places.
# How the values were obtained:
# HLA-HHDII/DP4 mice = experiment: Ex vivo IFNγ ELISpot after peptide immunisation, HHDII/DP4 mice; type: in vivo, mouse; settings: for IFNγ ELISpot response: 3 immunisations with CpG/MPLA, day 21
# Protocol: (§1) C57BL/6 mice (Charles River, UK), HLA-DR4 mice (Model #4149, Taconic, USA), HLA-A2/DR1 (HHDII/DR1, Pasteur Institute), HLA-A2.1+/+HLA-DP4+/+hCD4+/+ (HLA-HHDII/DP4) transgenic mice (EM: 02221, European Mouse Mutant Archive) described in patent WO2013/017545 A1 (EMMA repository, France) were used, aged between 8 and 12 weeks. Peptides were dissolved in PBS to 1 mg/ml and then emulsified (a series of dilutions) with CpG ODN 1826 and MPLA 6 μg/mouse of each (Invivogen, UK). Peptides (25 μg/mouse) were injected subcutaneously at the base of the tail. Mice were immunised at days 1, 7 and 14 for peptide immunisation. Spleens were removed for analysis at day 21 unless stated otherwise.
# (§2) ELISpot assays were performed using murine IFNγ, IL-17 and IL-10 capture and detection reagents according to the manufacturer's instructions (Mabtech, Sweden). In brief, anti-IFNγ, IL-17 and IL-10 specific antibodies were coated onto wells of 96-well Immobilin-P plate. Synthetic peptides (at various concentrations) and 5×10^5 per well splenocytes were added to wells of the plate in quadruplicate Tumour target cells were added where relevant at 5×10^4/well in triplicate and plates incubated for 40 hrs at 37° C. After incubation, captured IFNγ, IL-10 and IL-17 were detected by biotinylated anti-IFNγ, IL-10 and IL-17 antibodies and developed with a streptavidin alkaline phosphatase and chromogenic substrate. Lipopolysaccharide (LPS; 5 μg/ml) was used as a positive control. For MHC blocking studies, anti-CD4 blocking antibody (GK1.5) or anti-CD4 blocking antibody (RPA-T4) for HHDII/DP4 mice which express human CD4 and anti-CD8 blocking antibody (2.43) from Bioxcell were used at 20 μg/ml. Spots were analysed and counted using an automated plate reader (Cellular Technologies Ltd).
# Screening was performed to identify potential homocitrullinated ALDOA epitopes in transgenic HHDII/DP4 and HHDII/DR1 mice. Mice were immunised with pools of human homocitrullinated peptides. […] Each pool was administered as three immunisations containing 20 μg of each peptide and CpG/MPLA as an adjuvant. After 21 days the mice were culled and the immune responses to each peptide within the immunising pool were assessed by ex vivo ELISpot in HHDII/DP4 (FIG. 4b) and HHDII/DR1 mice (FIG. 4d). […] Our predictions therefore identified 3/5 peptides which could induce a T cell response. […] Of the responding peptides ALDOA 74-93 Hcit and 140-157 Hcit peptides are homologous in human and mice therefore these two peptides were selected for further investigation. Minimal IL-10 (FIG. 6b) or IL-17 (FIG. 6c) responses were seen to Aldolase peptides in HHDII/DP4 mice.
# Using this combination of predictions, 5 CyK8 peptides containing homocitrulline were synthesised (Table 4). Screening was performed to identify potential homocitrullinated Cyk8 epitopes in transgenic HHDII/DP4. Mice were immunised with pools of human homocitrullinated peptides. […] Each pool was administered as three immunisations containing 20 μg of each peptide and CpG/MPLA as an adjuvant. After 21 days the mice were culled and the immune responses to each peptide within the immunising pool were assessed by ex vivo ELISpot in HHDII/DP4 (FIG. 10a). […] The responses to CyK8 101-120 Hcit, 112-131 Hcit, 182-201 Hcit, 371-388 Hcit and 381-399 Hcit immunisation were characterised for cross reactivity to the wt peptide sequence. […] Thus a key characteristic of immunogenic peptides is they express homocitrulline. All of these peptides (100%) were immunogenic. Thus a high predicted HLA-DP4 binding affinity (<30), the presence of homocitrulline residues in the core region, the peptide being amphipathic in nature with a predominantely spiral conformational structure upon 3D modelling, and the existence of homology between the mouse and human sequences defines immunogenicity. When this model was applied retrospectively to include the vimentin and ALDOA peptides 8/9 (88%) were correctly predicted. […]
# HLA-HHDII/DR1 mice = experiment: Ex vivo IFNγ ELISpot after peptide immunisation, HHDII/DR1 mice; type: in vivo, mouse; settings: for IFNγ ELISpot response: 3 immunisations with CpG/MPLA, day 21
# Protocol: as §1, §2
# Screening was performed to identify potential homocitrullinated vimentin epitopes in mice. Mice were immunised with pools of homocitrullinated peptides. […] Each pool was administered as three immunisations containing 20 μg of each peptide and CpG/MPLA as an adjuvant on day 1, 8 and 15. On day 21 the mice were culled and the immune responses to each peptide within the immunising pool were assessed by ex vivo ELISpot. Given that different mouse strains have different MHC repertoires a number of strains were used for screening. Peptide responses were assessed in transgenic strains expressing human DR4 or HHDII/DR1 in a C57BL/6 background (see methods). […]
# The five selected homocitrullinated Cyk8 peptides were also screened in HHDII/DR1 transgenic mice. […] Response to Cyk8 112Hcit peptide in the HHDII/DR1 mice was lost in the presence of CD8 blocking antibody but less effect of the CD4 blocking antibody was seen (FIG. 12b). […] Responses to homocitrullinated Cyk8 peptides show both CD4 and CD8 mediated responses.
# [1] = splenocytes after 7 days culture
substance,measurement,setting,value
DVAASEFFRSG-Hcit-YDLDF-Hcit-SP [Alpha enolase 245-264 Hcit],IFNγ ELISpot response,HLA-HHDII/DP4 mice,stimulation of IFNγ responses
same,IFNγ response in presence of CD4 blocking antibody,HLA-HHDII/DP4 mice; [1],lost
EDFSETLTRA-Hcit-FEELNMDLFR [BiP 316-336 Hcit],IFNγ ELISpot response,HLA-HHDII/DP4 mice,stimulation of IFNγ responses
same,IFNγ response in presence of CD4 blocking antibody,HLA-HHDII/DP4 mice; [1],loss of response
EELNMDLFRSTM-Hcit-PVQ-Hcit-VL [BiP 328-346 Hcit],cross reactivity of Hcit response to wt peptide,HLA-HHDII/DP4 mice,significantly higher
same,IFNγ ELISpot response,HLA-HHDII/DP4 mice,stimulation of IFNγ responses
same,IFNγ response in presence of CD4 blocking antibody,HLA-HHDII/DP4 mice; [1],loss of response
GGSLP-Hcit-VEA-Hcit-FINYV-Hcit-NCFR [NPM 258-277 Hcit],cross reactivity of Hcit response to wt peptide,HLA-HHDII/DP4 mice,significantly higher
same,IFNγ ELISpot response,HLA-HHDII/DP4 mice,stimulation of IFNγ responses
same,IFNγ response in presence of CD4 blocking antibody,HLA-HHDII/DP4 mice; [1],blocking of the response
same,IFNγ response in presence of CD8 blocking antibody,HLA-HHDII/DP4 mice; [1],not with the CD8 blocking antibody
Hcit-MALDIEIATYR-Hcit-LLEGEE [Vimentin 390-408 Hcit],IFNγ ELISpot response,HLA-HHDII/DP4 mice,stimulation of IFNγ responses
same,IFNγ response in presence of CD4 blocking antibody,HLA-HHDII/DP4 mice; [1],loss of response
Hcit-MLET-Hcit-WSL [Cyk8 117-125Hcit],IFNγ response in presence of CD4 blocking antibody,HLA-HHDII/DP4 mice,not in the presence of CD4 blocking antibody
same,IFNγ response in presence of CD8 blocking antibody,HLA-HHDII/DP4 mice,blocked
same,IFNγ ELISpot response,HLA-HHDII/DP4 mice,generation of responses
same,IFNγ response in presence of CD8 blocking antibody,HLA-HHDII/DR1 mice,lost
same,IFNγ ELISpot response,HLA-HHDII/DR1 mice,generation of responses
"LEQQNKMLETKWSLLQQQKT [Cyk8 112 wt, reference compound]",IFNγ ELISpot response,HLA-HHDII/DR1 mice,no specific response
PLRPQNYLFGCEL-Hcit-AD-Hcit- [NPM 11-27 Hcit],IFNγ ELISpot response,HLA-HHDII/DP4 mice,stimulation of IFNγ responses
same,IFNγ response in presence of CD4 blocking antibody,HLA-HHDII/DP4 mice; [1],blocking of the response
same,IFNγ response in presence of CD8 blocking antibody,HLA-HHDII/DP4 mice; [1],not with the CD8 blocking antibody
RSERLA-Hcit-YNQLLRIEEELGS [Alpha enolase 400-419 Hcit],IFNγ ELISpot response,HLA-HHDII/DP4 mice,stimulation of IFNγ responses
same,IFNγ response in presence of CD4 blocking antibody,HLA-HHDII/DP4 mice; [1],lost
VLAAVY-Hcit-AL [Aldolase 209-217],IFNγ ELISpot response,HLA-HHDII/DP4 mice,stimulation of IFNγ responses
same,IFNγ response in presence of CD8 blocking antibody,HLA-HHDII/DP4 mice; [1],lost
same,cross reactivity of Hcit response to wt peptide,HLA-HHDII/DR1 mice,lower reactivity
same,IFNγ ELISpot response,HLA-HHDII/DR1 mice,strong responses
YVTE-Hcit-VLAAVY-Hcit-ALSD [Aldolase 204-219 Hcit],cross reactivity of Hcit response to wt peptide,HLA-HHDII/DP4 mice,significantly higher
same,IFNγ ELISpot response,HLA-HHDII/DP4 mice,stimulation of IFNγ responses
same,IFNγ response in presence of CD4 blocking antibody,HLA-HHDII/DP4 mice; [1],partial loss of response
same,IFNγ response in presence of CD8 blocking antibody,HLA-HHDII/DP4 mice; [1],partial loss of response
same,cross reactivity of Hcit response to wt peptide,HLA-HHDII/DR1 mice,lower reactivity
same,IFNγ ELISpot response,HLA-HHDII/DR1 mice,strong responses
